Experimental data: patent US20240103006A1 (Roche Diagnostics Operations, Inc., priority 2021, published 2024)
“And” between values parts separate entries of the source, which are not always exact repeats. Equal entries are not always repeated.

Tests used:
[1] = solvent as listed per probe; cited from earlier work
[2] = UV-vis spectral properties / extinction coefficients in aqueous buffer; assay type: physicochemical; details: for ε at λmax / λmax: merocyanine dyes; for ε of long-wavelength band of probe / ε of short-wavelength band(s) of probe / λmax, long-wavelength band of probe / λmax, short-wavelength band(s) of probe: probe before addition of Cys, 25 mM HEPES pH 7.4
Protocol: Absorption spectra were recorded on a Cary 50 UV-vis spectrometer from Varian. All measurements were performed in 1 cm UV-vis disposable cuvettes (BRAND semi-micro) and air-equilibrated solutions at 25±0.1° C. A total assay volume of 1.0 mL was used for each measurement. UV-vis scan spectra were recorded using following parameters: average time 0.05 s; data interval 1 nm; scan rate 1200 nm/min; with base line correction.
(§1) Stock solutions of assayed compounds (2-5 mM) were prepared in H2O-DMSO (1:1), stored at −20° C., and diluted to 1.0 mM with buffer before use. The L-Cys stock solution (20.0 mM) was freshly prepared in buffer before the measurements. […]
For a measurement, 1000 μL of buffer and 1-50 μL of probe (1.0 mM) were mixed, and then transferred to a cuvette. Absorbance spectra (250-800 nm) were measured against a blank of the buffer. At least six concentrations of each compound were used to calculate extinction coefficients from the slope of probe concentration vs absorbance plots, using MS Excel software (Microsoft).

[3] = Cys-response screening by UV-vis (cleavage of acryloyl ester by excess Cys); details: 25 mM HEPES pH 7.4; for ε^Cys / λ^Cys: after excess Cys (100 μM), 37° C., 15 min; for SNR: from ε^Cys and ε^blank
Protocol: as §1
In the same manner, ε^Cys was determined from the solutions of probe reacted with an excess of Cys (100 μM). The reactions were performed at 37° C. (incubation time 15 min). Blank reactions were run without addition of Cys.
Spectra recorded in the presence of Cys confirmed a colorimetric response through the cleavage of acryloyl ester. […] Moreover, their spectral profiles were advantageously fulfilling the wavelength requirement for the Cys sensing application in Cedex system (340, 378, 409, 480, 512, 520, 552, 583, 629, 652, 659 and 800 nm).

[4] = Evaluation of stability (hydrolysis of probe in buffer, UV-vis); assay type: physicochemical; details: 25 mM HEPES pH 7.4, 15.6 μM, 5 h, ε from merocyanine analogues (LZ07: ε from Table 2)
Protocol: For a measurement, 1000 μL of buffer and 16 μL of probe (1.0 mM) were mixed, and then incubated at +4° C. and at +37° C. for 5 h. The resulting mixtures were transferred to a cuvette, and the absorbance (250-800 nm) was measured. Each measurement was done in triplicate.
[…] Solutions of each probe were monitored by UV-vis for 5 h.

C=CC(=O)OC1=C(/C=C/C2=[N+](CCC)c3ccccc3C2(C)C)CCC/C1=C\C=C1\N(CCC)c2ccccc2C1(C)C
Spectra: Probe [1]: 775 nm | Spectra: With Cys [1]: 515 nm

C=CC(=O)Oc1ccc2c(c1)Oc1cc(OC(=O)C=C)ccc1C21OC(=O)c2ccccc21
Spectra: With Cys [1]: With Cys 490 nm

C=CC(=O)Oc1ccc(/C=C/c2sc3ccccc3[n+]2CC)c2cccnc12
Spectra: Probe [1]: 387 nm | Spectra: With Cys [1]: 566 nm

C=CC(=O)Oc1ccc2c(c1)OC1CCCC(=O)C1=C2 (centres unmarked)
Spectra: With Cys [1]: 398 nm

C=CC(=O)Oc1ccc2c(c1)OC1=C(/C=C/C3=[N+](C)c4ccccc4C3(C)C)CCCC1=C2
Spectra: Probe [1]: 582 nm | Spectra: With Cys [1]: 674 nm

C=CC(=O)Oc1ccc(/C=C/c2cc[n+](C)cc2)cc1
Spectra: Probe [1]: 335 nm | Spectra: With Cys [1]: 372 nm

C=CC(=O)Oc1ccc(/C=C/C2=CC(=C(C#N)C#N)c3ccccc3O2)cc1
Spectra: Probe [1]: 381 nm | Spectra: With Cys [1]: 557 nm

C=CC(=O)Oc1ccc2c(c1)oc(=O)c1c(=O)oc3ccccc3c12
Spectra: Probe [1]: 350 nm | Spectra: With Cys [1]: 445 nm

C=CC(=O)Oc1ccc2cc(/C=C/C3=[N+](C)c4c(ccc5ccccc45)C3(C)C)ccc2c1
Spectra: With Cys [1]: With Cys 460 nm

C=CC(=O)Oc1ccc2c(c1)Oc1c(ccc3oc(=O)c(C(=O)OCC)cc13)C21OC(=O)c2ccccc21 (centres unmarked)
Spectra: Probe [1]: 332 nm | Spectra: With Cys [1]: 450 nm

C=CC(=O)Oc1ccc2cc(/C=C/C3=[N+](C)c4ccccc4C3(C)C)ccc2c1
Spectra: Probe [1]: 409 nm | Spectra: With Cys [1]: 448 nm

C=CC(=O)Oc1ccc(/C=C/C(=O)/C=C(O)/C=C/c2ccc(OC(=O)C=C)c(OC)c2)cc1OC
Spectra: Probe [1]: 400 nm | Spectra: With Cys [1]: 427 nm

C=CC(=O)Oc1cccc2c1C(=O)N(Cc1cccc[n+]1CC)C2=O
Spectra: Probe [1]: 360 nm | Spectra: With Cys [1]: 400 nm

C=CC(=O)Oc1ccc2c(c1)OC1=C(/C=C/C3CC(=C(C#N)C#N)c4ccccc4O3)CCCC1=C2 (centres unmarked)
Spectra: Probe [1]: 550 nm | Spectra: With Cys [1]: 600 nm

CC1(C)C(/C=C/c2ccc(O)cc2)=[N+](CCCCS(=O)(=O)[O-])c2ccccc21 [LZ04, reference compound]
ε at λmax ([2]; 25 mM HEPES pH 7.4, 1-24 μM): 36.6 mM⁻¹ cm⁻¹ | λmax ([2]; 25 mM HEPES pH 7.4, 1-24 μM): 527 nm | ε at λmax ([2]; same buffer at pH 8.0): 45.6 mM⁻¹ cm⁻¹ | λmax ([2]; same buffer at pH 8.0): 527 nm

C[N+]1=C(/C=C/c2ccc(O)cc2)C(C)(C)c2ccccc21.[I-] [LZ06, reference compound]
ε at λmax ([2]; 25 mM HEPES pH 7.4, 1-24 μM): 27 to 37 mM⁻¹ cm⁻¹ | λmax ([2]; 25 mM HEPES pH 7.4, 1-24 μM): 520 nm | ε at λmax ([2]; same buffer at pH 8.0): 37 to 53 mM⁻¹ cm⁻¹ | λmax ([2]; same buffer at pH 8.0): 520 nm

Cc1cc(/C=C/C2=[N+](CCCCS(=O)(=O)[O-])c3ccccc3C2(C)C)cc(C)c1O [MF51]
ε at λmax ([2]; 25 mM HEPES pH 7.4, 1-24 μM): 73.9 mM⁻¹ cm⁻¹ | λmax ([2]; 25 mM HEPES pH 7.4, 1-24 μM): 550 nm

COc1cc(O)ccc1/C=C/C1=[N+](CCCCS(=O)(=O)[O-])c2ccccc2C1(C)C [MF52]
ε at λmax ([2]; 25 mM HEPES pH 7.4, 1-24 μM): 70.1 mM⁻¹ cm⁻¹ | λmax ([2]; 25 mM HEPES pH 7.4, 1-24 μM): 529 nm

COc1cc(/C=C/C2=[N+](CCCCS(=O)(=O)[O-])c3ccccc3C2(C)C)ccc1O [MF53]
ε at λmax ([2]; 25 mM HEPES pH 7.4, 1-24 μM): 65.3 mM⁻¹ cm⁻¹ | λmax ([2]; 25 mM HEPES pH 7.4, 1-24 μM): 548 nm

CC1(C)C(/C=C/c2ccc(O)c(S(=O)(=O)[O-])c2)=[N+](CCCCS(=O)(=O)O)c2ccccc21 [MF54]
ε at λmax ([2]; 25 mM HEPES pH 7.4, 1-24 μM): 44.9 mM⁻¹ cm⁻¹ | λmax ([2]; 25 mM HEPES pH 7.4, 1-24 μM): 528 nm

CC1(C)C(/C=C/c2ccc(O)c3ccccc23)=[N+](CCCCS(=O)(=O)[O-])c2ccccc21 [MF56]
ε at λmax ([2]; 25 mM HEPES pH 7.4, 1-24 μM): 109.7 mM⁻¹ cm⁻¹ | λmax ([2]; 25 mM HEPES pH 7.4, 1-24 μM): 582 nm

CC1(C)C(/C=C/c2ccc(O)c3ncccc23)=[N+](CCCCS(=O)(=O)[O-])c2ccccc21 [MF57]
ε at λmax ([2]; 25 mM HEPES pH 7.4, 1-24 μM): 106.3 mM⁻¹ cm⁻¹ | λmax ([2]; 25 mM HEPES pH 7.4, 1-24 μM): 572 nm

CC1(C)C(/C=C/c2ccc(O)cc2S(=O)(=O)[O-])=[N+](CCCCS(=O)(=O)O)c2ccccc21 [MF58]
ε at λmax ([2]; 25 mM HEPES pH 7.4, 1-24 μM): 48.1 mM⁻¹ cm⁻¹ | λmax ([2]; 25 mM HEPES pH 7.4, 1-24 μM): 514 nm

C=CC(=O)Oc1ccc(/C=C/C2=[N+](CCCCS(=O)(=O)[O-])c3ccccc3C2(C)C)c(OC)c1 [MF60]
ε^Cys [3]: 67.8 mM⁻¹ cm⁻¹ | λ^Cys [3]: 529 nm | SNR [3]: 14 | ε of long-wavelength band of probe [2]: 2.1 mM⁻¹ cm⁻¹ | ε of short-wavelength band(s) of probe [2]: 14.3 mM⁻¹ cm⁻¹ | λmax, long-wavelength band of probe [2]: 530 nm | λmax, short-wavelength band(s) of probe [2]: 409 nm | Hydrolysis @4° C. [4]: 9.8 ± 0.3% | Hydrolysis @37° C. [4]: 41.8 ± 0.9%

C=CC(=O)Oc1ccc(/C=C/C2=[N+](CCCCS(=O)(=O)[O-])c3ccccc3C2(C)C)cc1OC [MF61]
ε^Cys [3]: 61.7 mM⁻¹ cm⁻¹ | λ^Cys [3]: 549 nm | SNR [3]: 36 | ε of long-wavelength band of probe [2]: 0.4 mM⁻¹ cm⁻¹ | ε of short-wavelength band(s) of probe [2]: 20.4 mM⁻¹ cm⁻¹ | λmax, long-wavelength band of probe [2]: 548 nm | λmax, short-wavelength band(s) of probe [2]: 397 nm | Hydrolysis @4° C. [4]: 4.8 ± 0.1% | Hydrolysis @37° C. [4]: 29.1 ± 1.9%

C=CC(=O)Oc1ccc(/C=C/C2=[N+](CCCCS(=O)(=O)[O-])c3ccccc3C2(C)C)c2ccccc12 [MF62]
ε^Cys [3]: 105.3 mM⁻¹ cm⁻¹ | λ^Cys [3]: 582 nm | SNR [3]: 20 | ε of long-wavelength band of probe [2]: 1.5 mM⁻¹ cm⁻¹ | ε of short-wavelength band(s) of probe [2]: 8.5 mM⁻¹ cm⁻¹ and 7.7 mM⁻¹ cm⁻¹ | λmax, long-wavelength band of probe [2]: 582 nm | λmax, short-wavelength band(s) of probe [2]: 419 nm and 287 nm | Hydrolysis @4° C. [4]: 7.6 ± 0.5% | Hydrolysis @37° C. [4]: 40.4 ± 0.6%

C=CC(=O)Oc1ccc(/C=C/C2=[N+](CCCCS(=O)(=O)[O-])c3ccccc3C2(C)C)c2cccnc12 [MF63]
ε^Cys [3]: 93.4 mM⁻¹ cm⁻¹ | λ^Cys [3]: 572 nm | SNR [3]: 10 | ε of long-wavelength band of probe [2]: 2.9 mM⁻¹ cm⁻¹ | ε of short-wavelength band(s) of probe [2]: 14.0 mM⁻¹ cm⁻¹ | λmax, long-wavelength band of probe [2]: 572 nm | λmax, short-wavelength band(s) of probe [2]: 397 nm | Hydrolysis @4° C. [4]: 9.8 ± 1.5% | Hydrolysis @37° C. [4]: 55.3 ± 0.7%

C=CC(=O)Oc1ccc(/C=C/C2=[N+](CCCCS(=O)(=O)O)c3ccccc3C2(C)C)c(S(=O)(=O)[O-])c1 [MF64]
ε^Cys [3]: 32.1 mM⁻¹ cm⁻¹ | λ^Cys [3]: 514 nm | SNR [3]: 14 | ε of long-wavelength band of probe [2]: 0.7 mM⁻¹ cm⁻¹ | ε of short-wavelength band(s) of probe [2]: 8.0 mM⁻¹ cm⁻¹ | λmax, long-wavelength band of probe [2]: 514 nm | λmax, short-wavelength band(s) of probe [2]: 350 nm | Hydrolysis @4° C. [4]: 8.9 ± 0.2% | Hydrolysis @37° C. [4]: 45.2 ± 1.4%

Cc1cc(/C=C/C2=[N+](CCCS(=O)(=O)O)c3ccc(S(=O)(=O)[O-])cc3C2(C)C)cc(C)c1O [MF66]
ε at λmax ([2]; 25 mM HEPES pH 7.4, 1-24 μM): 122.6 mM⁻¹ cm⁻¹ | λmax ([2]; 25 mM HEPES pH 7.4, 1-24 μM): 556 nm | ε at λmax ([2]; same buffer at pH 8.0): 138.6 mM⁻¹ cm⁻¹ | λmax ([2]; same buffer at pH 8.0): 556 nm

Cc1cc(/C=C/C2=[N+](C)c3ccccc3C2(C)C)cc(C)c1O [MF67]
ε at λmax ([2]; 25 mM HEPES pH 7.4, 1-24 μM): 67.4 mM⁻¹ cm⁻¹ | λmax ([2]; 25 mM HEPES pH 7.4, 1-24 μM): 546 nm | ε at λmax ([2]; same buffer at pH 8.0): 84.9 mM⁻¹ cm⁻¹ | λmax ([2]; same buffer at pH 8.0): 546 nm

COc1cc(/C=C/C2=[N+](CCCCS(=O)(=O)[O-])c3ccccc3C2(C)C)cc(OC)c1O [MF68]
ε at λmax ([2]; 25 mM HEPES pH 7.4, 1-24 μM): 70.0 mM⁻¹ cm⁻¹ | λmax ([2]; 25 mM HEPES pH 7.4, 1-24 μM): 575 nm

C=CC(=O)Oc1ccc(/C=C/C2=[N+](C)c3ccccc3C2(C)C)cc1 [drawing 16]
Spectra: Probe [1]: 384 nm | Spectra: With Cys [1]: 512 nm
